Results taken from US9458120B2, “Phenoxypropanol derivative and pharmaceutical composition including the same” (KOREA INSTITUTE OF SCIENCE AND TECHNOLOGY, priority 2011, dated 2016).
Values belong to the molecule of their own block, whether it stands above or below them.

Legend:
[1] = molecular target: α1G T-type calcium channel (Homo sapiens, UniProt O43497); experiment: Assay for T-type calcium channel inhibition activity (FDSS6000 calcium imaging, KCl activation); format: cell-based; details: 75 s pre-treatment then KCl 75 mM, HEK293 cells expressing α1G T-type calcium channel and Kir2.1
Chain of α1G T-type calcium channel (O43497 whole entry): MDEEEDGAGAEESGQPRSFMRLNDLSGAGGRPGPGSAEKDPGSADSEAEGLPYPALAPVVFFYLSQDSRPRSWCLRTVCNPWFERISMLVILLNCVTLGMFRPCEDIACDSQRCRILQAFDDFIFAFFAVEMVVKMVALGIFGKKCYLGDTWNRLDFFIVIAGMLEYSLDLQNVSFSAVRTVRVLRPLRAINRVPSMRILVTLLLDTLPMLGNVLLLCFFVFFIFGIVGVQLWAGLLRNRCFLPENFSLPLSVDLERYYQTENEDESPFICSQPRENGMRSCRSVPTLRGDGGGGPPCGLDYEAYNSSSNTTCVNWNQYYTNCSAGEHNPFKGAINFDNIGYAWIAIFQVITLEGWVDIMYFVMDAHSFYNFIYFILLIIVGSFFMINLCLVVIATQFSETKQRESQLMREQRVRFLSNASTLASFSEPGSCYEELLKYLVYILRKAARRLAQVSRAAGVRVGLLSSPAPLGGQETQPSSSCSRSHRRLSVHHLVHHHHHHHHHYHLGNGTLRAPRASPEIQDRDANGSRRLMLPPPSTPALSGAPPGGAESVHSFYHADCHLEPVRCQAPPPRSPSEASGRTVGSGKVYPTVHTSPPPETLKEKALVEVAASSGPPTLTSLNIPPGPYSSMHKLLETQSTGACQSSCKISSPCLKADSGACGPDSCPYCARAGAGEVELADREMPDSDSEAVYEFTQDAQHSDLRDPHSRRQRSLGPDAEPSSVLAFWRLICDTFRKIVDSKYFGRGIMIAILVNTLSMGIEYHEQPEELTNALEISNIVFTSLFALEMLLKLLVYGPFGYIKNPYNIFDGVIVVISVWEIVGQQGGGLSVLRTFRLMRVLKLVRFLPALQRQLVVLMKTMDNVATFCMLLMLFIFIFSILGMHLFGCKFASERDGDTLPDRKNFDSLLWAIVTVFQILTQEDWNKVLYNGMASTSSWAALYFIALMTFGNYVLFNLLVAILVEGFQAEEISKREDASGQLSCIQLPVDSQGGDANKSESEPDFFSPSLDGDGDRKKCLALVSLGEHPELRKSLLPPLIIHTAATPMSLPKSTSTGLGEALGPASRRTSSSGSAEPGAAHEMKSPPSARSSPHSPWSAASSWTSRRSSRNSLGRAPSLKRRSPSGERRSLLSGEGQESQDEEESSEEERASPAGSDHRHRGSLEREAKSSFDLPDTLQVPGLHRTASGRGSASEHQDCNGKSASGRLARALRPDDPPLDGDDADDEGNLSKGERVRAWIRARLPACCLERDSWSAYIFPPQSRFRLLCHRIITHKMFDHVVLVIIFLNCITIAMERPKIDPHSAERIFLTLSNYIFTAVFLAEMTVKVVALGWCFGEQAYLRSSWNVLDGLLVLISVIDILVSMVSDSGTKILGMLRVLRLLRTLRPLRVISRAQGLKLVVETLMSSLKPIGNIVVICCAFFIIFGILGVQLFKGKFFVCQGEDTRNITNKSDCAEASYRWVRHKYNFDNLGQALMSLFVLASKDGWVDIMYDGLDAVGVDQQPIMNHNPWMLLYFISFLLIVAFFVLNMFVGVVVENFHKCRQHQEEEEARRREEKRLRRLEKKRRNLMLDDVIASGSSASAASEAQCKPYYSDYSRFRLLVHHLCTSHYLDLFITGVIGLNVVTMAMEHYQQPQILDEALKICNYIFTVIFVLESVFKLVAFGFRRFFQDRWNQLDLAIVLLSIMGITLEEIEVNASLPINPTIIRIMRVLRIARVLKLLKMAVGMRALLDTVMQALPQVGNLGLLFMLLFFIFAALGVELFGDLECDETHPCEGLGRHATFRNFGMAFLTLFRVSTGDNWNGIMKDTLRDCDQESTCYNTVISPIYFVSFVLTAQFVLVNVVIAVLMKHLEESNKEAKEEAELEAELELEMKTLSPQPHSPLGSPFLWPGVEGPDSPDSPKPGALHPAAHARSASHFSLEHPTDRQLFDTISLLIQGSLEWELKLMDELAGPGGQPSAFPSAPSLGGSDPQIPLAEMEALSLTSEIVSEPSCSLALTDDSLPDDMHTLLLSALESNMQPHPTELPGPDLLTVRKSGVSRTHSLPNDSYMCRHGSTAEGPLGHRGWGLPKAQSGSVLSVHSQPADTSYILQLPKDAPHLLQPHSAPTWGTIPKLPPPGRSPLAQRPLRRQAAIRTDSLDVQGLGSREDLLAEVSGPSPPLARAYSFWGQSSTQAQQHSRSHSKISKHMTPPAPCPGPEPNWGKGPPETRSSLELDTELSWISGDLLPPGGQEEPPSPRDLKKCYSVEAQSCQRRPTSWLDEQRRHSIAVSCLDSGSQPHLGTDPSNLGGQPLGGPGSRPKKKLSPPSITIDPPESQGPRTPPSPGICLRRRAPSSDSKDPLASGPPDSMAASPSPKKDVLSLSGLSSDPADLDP
Experimental: At 12-24 hours before the assay for T-type calcium channel activity, cells of HEK293 cell line (α1G cell line: KCTC 10519BP, GenBank, Korea Research Institute of Bioscience and Biotechnology) which stably express α1G T-type calcium channel and Kir2.1, were sub-cultured in a poly-L-lysine (0.05 mg/ml) treated 96-well plate with the density of 4×10^4 per a well using a 96-well cell dispenser (Titertek). On the day of assay, the 96-well plate to which the cells were attached were washed three times with a HEPES buffer solution (unit mM: 150 NaCl, 5 KCl, 1 MgCl2, 2 CaCl2, 10 HEPES, 10 glucose, pH 7.4) using a 96-well plate automatic washing device (Bio Tek), and then reacted with a HEPES buffer solution containing 5 μM fluo-3/AM and 0.001% (w/v) Pluronic F-127 at room temperature for 1 hour, to label with fluorescent dye, and then further washed twice with the HEPES buffer solution. Thereafter, at 10 minutes before the measurement using a FDSS6000 device, a washing with a HEPES buffer solution containing 10 mM CaCl2 was conducted once more, and the final volume was adjusted to 81 μl. Besides the above 96-well plate containing the cells, additional two 96-well drug plates were provided, in which the 96-well plates contained KCl (final concentration: 75 mM) for activating T-type calcium channel and a blocker drug, respectively.
Since most of cell-based HTS (High throughput screening) devices are equipped with a liquid application system for drug injection, but have no liquid sucking system, the blocker drug to be tested and KCl were respectively provided at the five-times higher concentration in 10 mM CaCl2 HEPES buffer solution at the amount of 27 μl, diluted five-times at the final cell plate volume of 135 μl, and then used in this test. In this Experimental Example, therefore, FDSS6000 (Hamamatsu Photonics) was used as an alternative to HTS device.
Specific FDSS6000 measurement conditions are as follows: After recording the reference value of 20 seconds, the change of intracellular calcium concentration which induced by pre-treatment of the drug (the prepared […]) for 75 seconds followed by administration of KCl was measured, in which the percentage (%) inhibition effect of the test drug was determined, through estimating the area of ratio value of 340/380 in the control without treatment of the test drug as 100%. As a reference drug, 10 μM of mibefradil was always used.
For accurate calcium-imagination, the light sources of 4 xenon lamps in FDSS6000 were radiated to make the cells exposed selectively to the excitation wavelength (340 nm and 380 nm) by computer-controlled filter wheel. Data was obtained at interval of each 1.23 second. The emitter fluorescence light inflow through a 515 nm long-pass filter was obtained as an average 340/380 ratio value for each well in the 96-wells by a cooled CCD camera and digital fluorescence analyzer in the device. All image data and analysis were obtained by using a FDSS6000-exclusive program provided by Hamamatsu Photonics, as described above.

[2] = molecular target: T1, TREK-1 channel (Rattus norvegicus, UniProt Q920B6); experiment: Assay for TREK channel inhibition activity (whole cell patch clamp recording, COS7 cell transfected with GFP-rTREK-1); format: cell-based; details: COS7 cells, GFP-rTREK-1, whole-cell patch clamp; for inhibition at 101 µM: COS-7, Table 3 (value ± spread), 101 μM [sic], read-out: block % at 101 μM; for inhibition at 10 µM: COS-7, Table 2, read-out: block % at 10 μM
T1 construct: expressed in transfected cells; host or cells: COS7 (Korean Cell Line Bank), transient transfection with Effectene
T1 sequence (Q920B6 1-426): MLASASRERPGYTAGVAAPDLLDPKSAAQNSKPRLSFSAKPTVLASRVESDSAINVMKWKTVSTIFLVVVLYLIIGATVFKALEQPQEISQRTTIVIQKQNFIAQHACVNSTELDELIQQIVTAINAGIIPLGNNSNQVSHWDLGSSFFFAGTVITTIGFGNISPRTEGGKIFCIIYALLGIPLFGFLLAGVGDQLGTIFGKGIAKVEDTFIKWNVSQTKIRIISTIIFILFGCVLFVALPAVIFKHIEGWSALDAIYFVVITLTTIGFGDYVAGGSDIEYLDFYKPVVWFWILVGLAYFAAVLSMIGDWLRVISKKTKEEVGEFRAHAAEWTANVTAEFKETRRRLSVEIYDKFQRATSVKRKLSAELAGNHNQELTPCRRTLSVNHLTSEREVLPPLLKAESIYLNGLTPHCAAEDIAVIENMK
Experimental: The inhibition activity of the compound of the present invention against TREK-1 channel was measured by measuring the physiological activity by whole cell patch clamp recording.
COS7 cell (obtained from Korean Cell Line Bank (KCLB)) was transfected with GFP-rTREK-1 gene (accession number: AY727922) using an Effectene transfection reagent (Qiagen), and cultured for 24 hours in an incubator at 37° C. As a culture medium, Dulbecco's modified Eagle's medium (DMEM, GIBCO products from Invitrogen) containing 10% by weight of fetal bovine serum (FBS) and 1% by weight of penicillin/streptomycin (5000 unit/ml) was used. The cells thus prepared were adhered on a cover glass, which was placed on a chamber, and then a recording solution (150 mM NaCl, 10 mM HEPES, 10 mM KCl, 2 mM CaCl2, 5.5 mM D-Glucose, all reagents were purchased from Sigma) was applied. A glass microelectrode was filled with an intracellular solution prepared with the composition of 150 mM KCl, 5 mM EGTA, 10 mM HEPES, 0.5 mM CaCl2, 1 mM MgCl2, 4 mM Mg-ATP, and 0.3 mM Na-GTP (all reagents were purchased from Sigma), followed by whole-cell patch clamp recording. The voltage was fixed at −70 mV using a Digidata 1322A data acquisition system (Molecular Devices) and an Axopatch 200A amplifier (Axon Instruments), and the current generated by applying a voltage ramp from −100 mV to +100 mV for 1 second was measured using a Clampex9.2 program. A difference between the current values measured at +100 mV and −100 mV was defined as a current in the above experiment. The currents before and after blocker treatment were measured so as to determine the inhibition activity.
Block %=100−(current after blocker treatment/current before blocker treatment)*100

Compound: O[C@H](COc1ccc(F)cc1)CN1CCC(N2CCCCC2)CC1 [KKRE10159, (S)-1-(1,4′-bipiperidin-1′-yl)-3-(4-fluorophenoxy)propan-2-ol]
inhibition [1]: 6.37%
inhibition at 101 µM [2]: 13.4 ± 5.78%

Compound: O[C@@H](COc1ccc(F)cc1)CN1CCC(N2CCCC2)CC1 [KKRE10160, (R)-1-(4-fluorophenoxy)-3-(4-(pyrrolidin-1-yl)piperidin-1-yl)propan-2-ol]
inhibition [1]: 0.31%
inhibition at 101 µM [2]: 4.13 ± 4.43%

Compound: O[C@H](COc1ccc(F)cc1)CN1CCC(N2CCCC2)CC1 [KKRE10161, (S)-1-(4-fluorophenoxy)-3-(4-(pyrrolidin-1-yl)piperidin-1-yl)propan-2-ol]
inhibition [1]: -0.06%
inhibition at 101 µM [2]: 8.28 ± 3.49%

Compound: O=C(CN1CCN(C[C@H](O)COc2ccc(C(F)(F)F)cc2)CC1)NCc1ccc(C(F)(F)F)cc1 [KKRE10173, (S)-2-(4-(2-hydroxy-3-(4-(trifluoromethyl)phenoxy)propyl)piperazin-1-yl)-N-(4-(trifluoromethyl)benzyl)acetamide]
inhibition [1]: 53.6%
inhibition at 10 µM [2]: 63.2%
inhibition at 101 µM [2]: 63.2 ± 7.6%

Compound: Cc1ccc(CNC(=O)CN2CCN(C[C@H](O)COc3ccc(C(F)(F)F)cc3)CC2)cc1 [KKRE10174, (S)-2-(4-(2-hydroxy-3-(4-(trifluoromethyl)phenoxy)propyl)piperazin-1-yl)-N-(4-methylbenzyl)acetamide]
inhibition [1]: 48.8%
inhibition at 10 µM [2]: 37.6%
inhibition at 101 µM [2]: 37.6 ± 5.55%
block % at 100 μM ([2]; Table 2): 88.17%
block % at 100 μM ([2]; Table 3 (value ± spread)): 88.17 ± 4.60%

Compound: O=C(CN1CCN(C[C@H](O)COc2ccc(C(F)(F)F)cc2)CC1)NC1CCCCC1 [KKRE10175, (S)-N-cyclohexyl-2-(4-(2-hydroxy-3-(4-(trifluoromethyl)phenoxy)propyl)piperazin-1-yl)acetamide]
inhibition [1]: 43.1%
inhibition at 10 µM [2]: 18.1%
inhibition at 101 µM [2]: 18.1 ± 6.92%
block % at 100 μM ([2]; Table 2): 74.61%
block % at 100 μM ([2]; Table 3 (value ± spread)): 74.61 ± 2.15%

Compound: O=C(CN1CCN(C[C@@H](O)COc2ccc(C(F)(F)F)cc2)CC1)NC1CCCCC1 [KKRE10176, (R)-N-cyclohexyl-2-(4-(2-hydroxy-3-(4-(trifluoromethyl)phenoxy)propyl)piperazin-1-yl)acetamide]
inhibition [1]: 43.9%
inhibition at 101 µM [2]: 33.5 ± 5.67%

Compound: O[C@@H](COc1ccc(F)cc1)CN1CCC(F)(F)CC1 [KKRE10178, (R)-1-(4,4-difluoropiperidin-1-yl)-3-(4-fluorophenoxy)propan-2-ol]
inhibition [1]: 37.6%
inhibition at 101 µM [2]: 66 ± 4.05%

Compound: O[C@@H](COc1ccc(F)cc1)CN1CCC(O)(c2ccccc2)CC1 [KKRE10179]
inhibition [1]: 16%
inhibition at 101 µM [2]: 19.9 ± 4.25%

Compound: O[C@H](COc1ccc(F)cc1)CN1CCC(F)(F)CC1 [KKRE10180, (S)-1-(4,4-difluoropiperidin-1-yl)-3-(4-fluorophenoxy)propan-2-ol]
inhibition [1]: 17.3%
inhibition at 101 µM [2]: 23.3 ± 10%

Compound: O[C@H](COc1ccc(F)cc1)CN1CCC(O)(c2ccccc2)CC1 [KKRE10181]
inhibition [1]: 35.4%
inhibition at 101 µM [2]: 53.9 ± 1.62%

Compound: O[C@@H](COc1ccc(C(F)(F)F)cc1)CN1CCC(O)(c2ccccc2)CC1 [KKRE10186, (R)-1-(2-hydroxy-3-(4-(trifluoromethyl)phenoxy)propyl)-4-phenylpiperidin-4-ol]
inhibition [1]: 46.1%
inhibition at 101 µM [2]: 54 ± 12.1%

Continued, values first:

inhibition [1]: 12.5%
inhibition at 101 µM [2]: 46.6 ± 6.25%
Compound: O[C@@H](COc1ccc(C(F)(F)F)cc1)CN1CCC(N2CCOCC2)CC1 [KKRE10182, (R)-1-(4-morpholinopiperidin-1-yl)-3-(4-(trifluoromethyl)phenoxy)propan-2-ol]

inhibition [1]: 12%
inhibition at 101 µM [2]: 36.4 ± 7.38%
Compound: O[C@@H](COc1ccc(C(F)(F)F)cc1)CN1CCC(N2CCCCC2)CC1 [KKRE10183, (R)-1-(1,4′-bipiperidin-1′-yl)-3-(4-(trifluoromethyl)phenoxy)propan-2-ol]

inhibition [1]: 9.54%
inhibition at 101 µM [2]: 37.4 ± 6.98%
Compound: O[C@@H](COc1ccc(C(F)(F)F)cc1)CN1CCC(N2CCCC2)CC1 [KKRE10184, (R)-1-(4-(pyrrolidin-1-yl)piperidin-1-yl)-3-(4-(trifluoromethyl)phenoxy)propan-2-ol]

inhibition [1]: 14.8%
inhibition at 101 µM [2]: 60.8 ± 7.47%
Compound: O[C@@H](COc1ccc(C(F)(F)F)cc1)CN1CCC(F)(F)CC1 [KKRE10185, (R)-1-(4,4-difluoropiperidin-1-yl)-3-(4-(trifluoromethyl)phenoxy)propan-2-ol]

inhibition [1]: 10.1%
inhibition at 101 µM [2]: 49.2 ± 6.75%
Compound: O[C@H](COc1ccc(C(F)(F)F)cc1)CN1CCC(N2CCOCC2)CC1 [KKRE10187, (S)-1-(4-morpholinopiperidin-1-yl)-3-(4-(trifluoromethyl)phenoxy)propan-2-ol]

inhibition [1]: 5.73%
inhibition at 101 µM [2]: 55.6 ± 0.23%
Compound: O[C@H](COc1ccc(C(F)(F)F)cc1)CN1CCC(N2CCCCC2)CC1 [KKRE10188, (S)-1-(1,4′-bipiperidin-1′-yl)-3-(4-(trifluoromethyl)phenoxy)propan-2-ol]

inhibition [1]: 26%
inhibition at 101 µM [2]: 4.7 ± 1.04%
Compound: Cc1ccc(OC[C@H](O)CN2CCN(CC(=O)NCc3ccccc3)CC2)cc1 [KKRE10196, (R)-N-benzyl-2-(4-(2-hydroxy-3-(p-tolyloxy)propyl)piperazin-1-yl)acetamide]

inhibition [1]: 27.1%
inhibition at 101 µM [2]: 13.5 ± 3.9%
Compound: Cc1ccc(OC[C@@H](O)CN2CCN(CC(=O)NCc3ccccc3)CC2)cc1 [KKRE10197, (S)-N-benzyl-2-(4-(2-hydroxy-3-(p-tolyloxy)propyl)piperazin-1-yl)acetamide]

inhibition [1]: 28.6%
inhibition at 10 µM [2]: 29.9%
inhibition at 101 µM [2]: 29.9 ± 3.9%
Compound: Cc1ccc(CNC(=O)CN2CCN(C[C@@H](O)COc3ccc(C)cc3)CC2)cc1 [KKRE10198, (R)-2-(4-(2-hydroxy-3-(p-tolyloxy)propyl)piperazin-1-yl)-N-(4-methylbenzyl)acetamide]
